TGI data for 21 compounds are collected here from PubChem BioAssay (NCI).

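Cultured in 96-well plates, cells were exposed to test compound for 48 hours across five concentrations. TGI: concentration producing complete growth inhibition.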

What all share (assay): inhibition of tumour cell growth, NCI panel, 48 h
Test [1] relates to DU-145 prostate.
Test [2] deals with HOP-62 NSCLC.
Test [3] has as its system IGROV1 ovarian.
The subject of test [4] is SF-268 CNS.
Test [5] deals with KM12 colon.
Test [6] concerns 786-0 renal.
For test [7], the system named is MDA-MB-231 breast.
Test [8] concerns HCT-116 colon.
Test [9] has as its system RXF 393 renal.
For test [10], the system named is PC-3 prostate.

For `COC(=O)c1ccc2n1C1CC3CC(CC2C3)C1`, the TGI in test [1], in test [2], in test [3], in test [4], in [5] and in test [6] was greater than 100 µM throughout. In addition, the TGI is greater than 100 µM in [7], greater than 100 µM in [8], 96.6 µM in test [9] and greater than 100 µM in test [10].
Take `CCN1/C(=C/c2ccc3ccccc3[n+]2CC)C=Cc2ccccc21`: the TGI turned out to be 15.7 µM in test [1]; 13.9 µM in [2]; 16.4 µM in test [3]; 16.5 µM in test [4]; 1.4 µM in [5]; 13.9 µM in test [6]. Further, the TGI in test [7] was 8.12 µM; in test [8], 11.7 µM; in [9] it was 12.8 µM; in [10] it was 4.58 µM.
For `O=C(O)c1c(-c2c3ccc(=O)cc-3oc3cc(O)ccc23)cc2ccccc2c1-c1ccccc1`, the TGI in test [1], in test [2], in [3], in [4], in test [5] and in test [6] was greater than 100 µM throughout. In addition, the TGI in test [7], in [8], in test [9] and in [10] was greater than 100 µM in each case.
For the compound `COC(=O)C1OC(O[C@H]2CC[C@]3(C)[C@H]4CC=C5[C@@H]6CC(C)(C)CC[C@]6(C(=O)OC)[C@H](O)C[C@@]5(C)[C@]4(C)CC[C@H]3C2(C)C)C(O)C(O)C1O` (stereo not given in full), the TGI in [1] stood at 21.6 µM; in test [2], 31.1 µM; in [3], 24.8 µM; in test [4] it was 29.5 µM; in test [5], 4.21 µM; in test [6], 20.9 µM. Also, the TGI came out at 21.8 µM in test [7], 17 µM in test [8], 18.1 µM in [9] and 19.8 µM in [10].
In the case of `COc1ccc(CNc2nc(NCc3ccc(OC)cc3)nc(Nc3ccccc3)n2)cc1`, the TGI in test [1] was greater than 100 µM; in test [2], greater than 100 µM; in test [3], greater than 100 µM; in [4], greater than 100 µM; in [5], 35.3 µM; in test [6] it was greater than 100 µM. In addition, the TGI in test [7], in test [8], in test [9] and in test [10] was greater than 100 µM throughout.
For `O=S(=O)(O)CCS`, the TGI in test [1], in test [2], in test [3], in [4], in test [5] and in test [6] was greater than 100 µM throughout. The TGI in test [7], in test [8], in test [9] and in test [10] was greater than 100 µM throughout.
As for `Cc1cccc2sc(NC(=O)c3cc([N+](=O)[O-])ccc3Cl)nc12`, the TGI in test [1] was 17.4 µM; in test [2] it was greater than 73.1 µM; in [3], 10.7 µM; in test [4], greater than 33.7 µM; in test [5] it was 12.1 µM; in test [6], 4.67 µM. For the same compound, the TGI was greater than 100 µM in test [7], 12 µM in test [8], 12.9 µM in test [9] and 38.4 µM in [10].
Turning to `COC(=O)[C@H]1[C@H](C(=O)OC)[C@@H](C)c2c(ccc3c2[nH]c2ccccc23)[C@@H]1C`, the TGI in test [1] was greater than 100 µM; in test [2], greater than 100 µM; in test [3] it was greater than 100 µM; in [4] it was greater than 100 µM; in [5], greater than 100 µM; in test [6], 61.5 µM. The TGI in test [7] is greater than 100 µM; in test [8] it was greater than 100 µM; in test [9], 82.9 µM; in test [10], greater than 100 µM.
As to `COC1=CC(=O)C(O)=C(C[C@@]2(C)[C@@H]3CCC[C@H](COC(=O)CCCCCNC(=O)OC(C)(C)C)[C@@]3(C)CC[C@@H]2C)C1=O`, the TGI in [1], in test [2], in test [3], in test [4], in test [5] and in [6] was greater than 10 µM each time. Besides, the TGI in [7], in test [8], in [9] and in [10] was greater than 10 µM in each case.
Consider `COC1(OC)N=C(N)C2(C#N)C(C)CC(=O)N(N(C)C)C12C#N` (stereo not given), for which the TGI in test [1], in test [2], in test [3], in test [4], in test [5] and in [6] was greater than 100 µM in each case. In addition, the TGI in test [7], in [8], in test [9] and in test [10] was greater than 100 µM each time.
Turning to `CCOC(OCC)C(CC)[Se]c1ccccc1[N+](=O)[O-]` (stereo not given), the TGI in test [1] was greater than 100 µM; in test [2], greater than 74.2 µM; in test [3], greater than 100 µM; in test [4], 63.9 µM; in [5] it was 71.4 µM; in test [6], greater than 46.7 µM. The TGI in test [7] is greater than 100 µM; in test [8], 30.2 µM; in [9] it was 5.59 µM; in test [10], greater than 100 µM.
In the case of `N#CC1C(=O)Nc2sc(C(=O)c3ccc(Br)cc3)c(N)c2C12CCCCC2` (stereo not given), the TGI was greater than 100 µM in [1]; greater than 100 µM in test [2]; greater than 100 µM in test [3]; greater than 100 µM in test [4]; 44.1 µM in [5]; greater than 100 µM in test [6]. Further, the TGI was 67.7 µM in test [7], greater than 100 µM in [8], 31.8 µM in test [9] and 57.1 µM in test [10].
In the case of `C=CCN1C(=O)/C(=C/c2ccc(C)cc2)N=C1SC/C=C/C`, the TGI in [1], in [2], in test [3], in test [4], in test [5] and in test [6] was greater than 100 µM in each case. Besides, the TGI in test [7] was greater than 100 µM; in test [8], greater than 100 µM; in test [9], 46.8 µM; in test [10] it was greater than 100 µM.
`Cc1ccc(S(=O)(=O)N2CCSCCSCCN(S(=O)(=O)c3ccc(C)cc3)CCN(S(=O)(=O)c3ccc(C)cc3)CC2)cc1`: the TGI in test [1], in [2], in test [3], in test [4], in [5] and in test [6] was greater than 100 µM in each case. Moreover, the TGI in test [7], in [8], in test [9] and in [10] was greater than 100 µM each time.
`CCOC(=O)CCC(NC(=O)c1ccc(CNc2nc3cc(N)cc(N)c3nc2-c2ccccc2)cc1)C(=O)OCC` (stereo not given): the TGI in test [1], in [2], in [3], in test [4], in test [5] and in [6] was greater than 100 µM throughout. Further, the TGI in [7] is greater than 68.1 µM; in test [8] it was greater than 100 µM; in test [9], greater than 100 µM; in [10] it was greater than 100 µM.
In the case of `CC(C)(C)NC(NC(C)(C)C)=C(C(Cl)=C(Cl)Cl)[N+](=O)[O-]`, the TGI in test [1], in test [2], in [3], in test [4], in [5] and in test [6] was greater than 100 µM throughout. For the same compound, the TGI in test [7], in test [8], in [9] and in test [10] was greater than 100 µM throughout.
As for `O=C(CCCCCCCCC(=O)NN1C(=O)/C(=C\c2ccc(O)c(O)c2)SC1c1c(O)ccc2ccccc12)NN1C(=O)C(=Cc2ccc(O)c(O)c2)SC1c1c(O)ccc2ccccc12` (stereo not given), the TGI is greater than 59.8 µM in test [1]; greater than 36.8 µM in test [2]; greater than 55.5 µM in test [3]; greater than 100 µM in [4]; greater than 100 µM in [5]; greater than 70 µM in [6]. For the same compound, the TGI was greater than 87.7 µM in [7], greater than 100 µM in test [8], greater than 57.6 µM in test [9] and greater than 100 µM in test [10].
For the compound `Oc1ccc2c(c1)OCC(O)(c1ccccc1O)C2` (stereo not given), the TGI in test [1], in test [2], in test [3], in [4], in test [5] and in test [6] was greater than 100 µM each time. The TGI in [7], in test [8], in test [9] and in [10] was greater than 100 µM in each case.
Turning to `NC(=O)c1n[nH]n(-c2ccccc2)c1=O`, the TGI in test [1], in [2], in [3], in test [4], in test [5] and in test [6] was greater than 100 µM each time. In addition, the TGI in test [7], in test [8], in test [9] and in [10] was greater than 100 µM throughout.
For `CCCn1cnc2c(NN=O)ncnc21`, the TGI in test [1], in [2], in test [3], in test [4], in test [5] and in [6] was greater than 100 µM in each case. The TGI in test [7], in test [8], in test [9] and in test [10] was greater than 100 µM each time.
As for `CC1=C(C(=O)OCCO[N+](=O)[O-])C(c2ccccc2C(F)(F)F)C(C(=O)OC(C)C)=C(C)N1` (stereo not given), the TGI in [1] is greater than 100 µM; in test [2], 45.8 µM; in [3], 42.8 µM; in test [4] it was 47.9 µM; in test [5] it was 21.8 µM; in test [6], 36.6 µM. Further, the TGI amounted to 23.5 µM in [7], 29.1 µM in test [8], 31.4 µM in test [9] and 34.5 µM in [10].
